From ChEMBL document CHEMBL1201862, “PubChem BioAssay data set” (2004)
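The compound was tested at five concentrations on cells cultured in 96-well plates, with a 48-hour exposure period. At the GI50, growth is halved.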 The source made the active and inactive calls. No stated cut-off is given here; in the data, active = GI50 up to about 1.1 µM and inactive = higher.

Legend:
Assay in all cases: NCI-60 cell line screen, 48 h
786-0 = tested on: 786-0
A498 = tested on: A498
CAKI-1 = tested on: CAKI-1
HCT-15 = tested on: HCT-15
HOP-92 = tested on: HOP-92
IGROV-1 = tested on: IGROV-1
M14 = tested on: M14
MOLT-4 = tested on: MOLT-4
NCI-H23 = tested on: NCI-H23
NCI-H460 = tested on: NCI-H460
OVCAR-4 = tested on: OVCAR-4
OVCAR-5 = tested on: OVCAR-5
RXF 393 = tested on: RXF 393
SF-295 = tested on: SF-295
SK-OV-3 = tested on: SK-OV-3
Hs-578T = tested on: Hs-578T
MCF7 = tested on: MCF7
PC-3 = tested on: PC-3
T47D = tested on: T47D
BT-549 = tested on: BT-549

Structure (SMILES)	GI50 (786-0)	GI50 (A498)	GI50 (CAKI-1)	GI50 (HCT-15) [µM]	GI50 (HOP-92)	GI50 (IGROV-1)	GI50 (M14)	GI50 (MOLT-4)	GI50 (NCI-H23)	GI50 (NCI-H460)	GI50 (OVCAR-4)	GI50 (OVCAR-5)	GI50 (RXF 393)	GI50 (SF-295)	GI50 (SK-OV-3)	GI50 (Hs-578T)	GI50 (MCF7)	GI50 (PC-3)	GI50 (T47D)	GI50 (BT-549)
C=C(CN(C)C)C(=O)c1ccc(C(=O)C(=C)CN(C)C)cc1	> 100 µM (inactive)	> 100 µM (inactive)	> 100 µM (inactive)	> 100	> 100 µM (inactive)	> 100 µM (inactive)	> 100 µM (inactive)	> 100 µM (inactive)	> 100 µM (inactive)	> 100 µM (inactive)	> 100 µM (inactive)	> 100 µM (inactive)	> 100 µM (inactive)	> 100 µM (inactive)	> 100 µM (inactive)	–	–	–	–	–
CCSC1=N/C(=C\c2ccco2)C(Nc2ccc(C)cc2)=N1	> 100 µM (inactive)	> 100 µM (inactive)	–	> 100	> 100 µM (inactive)	60.5 µM (inactive)	> 100 µM (inactive)	> 100 µM (inactive)	> 100 µM (inactive)	–	–	> 100 µM (inactive)	–	> 100 µM (inactive)	> 100 µM (inactive)	> 100 µM (inactive)	> 100 µM (inactive)	> 100 µM (inactive)	–	–
COC(=O)/C=C(/C=C1/C(C#N)=C(N)N(c2ccc(Cl)cc2)C1(C)/C(=C/C(=O)OC)C(=O)OC)C(=O)OC (stereo unspecified)	40.3 µM (inactive)	49.5 µM (inactive)	> 100 µM (inactive)	23.8	42.3 µM (inactive)	27.6 µM (inactive)	76.9 µM (inactive)	23 µM (inactive)	42.3 µM (inactive)	40.6 µM (inactive)	> 100 µM (inactive)	> 100 µM (inactive)	–	53.1 µM (inactive)	52.5 µM (inactive)	–	78.3 µM (inactive)	34.6 µM (inactive)	49.1 µM (inactive)	–
CN1/C(=C/C=C/C=C/C=C2C(=O)c3ccccc3C2=O)C(C)(C)c2ccccc21	> 100 µM (inactive)	23.8 µM (inactive)	44 µM (inactive)	40.2	15.7 µM (inactive)	39.6 µM (inactive)	37.5 µM (inactive)	–	41 µM (inactive)	53.5 µM (inactive)	75.3 µM (inactive)	33 µM (inactive)	24.2 µM (inactive)	35.5 µM (inactive)	39.4 µM (inactive)	29.9 µM (inactive)	31.3 µM (inactive)	–	6.76 µM (inactive)	24 µM (inactive)
CC(C)=CCc1cc(/C=C/C(=O)O)cc(CC=C(C)C)c1O [ARTEPILLIN]	> 100 µM (inactive)	> 100 µM (inactive)	> 100 µM (inactive)	76	19.7 µM (inactive)	73.5 µM (inactive)	> 100 µM (inactive)	> 100 µM (inactive)	> 100 µM (inactive)	> 100 µM (inactive)	> 100 µM (inactive)	> 100 µM (inactive)	–	> 100 µM (inactive)	> 100 µM (inactive)	> 100 µM (inactive)	> 100 µM (inactive)	> 100 µM (inactive)	–	> 100 µM (inactive)
COc1cc(/C=C2\NC(=O)C(Cc3cc(OC)c(OC)c(C)c3OC)N(C(C)=O)C2=O)c(OC)c(C)c1OC (stereo unspecified)	> 100 µM (inactive)	> 100 µM (inactive)	54.8 µM (inactive)	–	29.3 µM (inactive)	> 100 µM (inactive)	> 100 µM (inactive)	33.3 µM (inactive)	> 100 µM (inactive)	43.4 µM (inactive)	> 100 µM (inactive)	> 100 µM (inactive)	95.5 µM (inactive)	> 100 µM (inactive)	> 100 µM (inactive)	–	–	–	–	–
C(=C\c1cc(-c2ccc3ccccc3n2)nc2ccc3ccccc3c12)/c1ccc2ccccc2n1	> 100 µM (inactive)	> 100 µM (inactive)	> 100 µM (inactive)	> 100	–	> 100 µM (inactive)	> 100 µM (inactive)	> 100 µM (inactive)	> 10 µM (inactive)	> 100 µM (inactive)	> 100 µM (inactive)	> 100 µM (inactive)	> 100 µM (inactive)	> 100 µM (inactive)	> 100 µM (inactive)	29.4 µM (inactive)	> 100 µM (inactive)	> 100 µM (inactive)	–	> 100 µM (inactive)
CC1(C)CC2CC(CC(C)(C)C2=O)C1=O	> 100 µM (inactive)	> 100 µM (inactive)	> 100 µM (inactive)	> 100	> 100 µM (inactive)	> 100 µM (inactive)	> 100 µM (inactive)	> 100 µM (inactive)	> 100 µM (inactive)	> 100 µM (inactive)	> 100 µM (inactive)	> 100 µM (inactive)	> 100 µM (inactive)	> 100 µM (inactive)	> 100 µM (inactive)	–	–	–	–	–
Cc1cc(C)c2c(-c3ccccc3)cc(=O)[nH]c2c1	> 100 µM (inactive)	> 100 µM (inactive)	–	> 100	–	> 100 µM (inactive)	> 100 µM (inactive)	> 100 µM (inactive)	> 100 µM (inactive)	> 100 µM (inactive)	> 100 µM (inactive)	> 100 µM (inactive)	> 100 µM (inactive)	> 100 µM (inactive)	> 100 µM (inactive)	> 100 µM (inactive)	> 100 µM (inactive)	> 100 µM (inactive)	> 100 µM (inactive)	–
O=C(O)CCNS(=O)(=O)c1ccc([N+](=O)[O-])cc1	> 100 µM (inactive)	> 100 µM (inactive)	> 100 µM (inactive)	> 100	> 100 µM (inactive)	> 100 µM (inactive)	> 100 µM (inactive)	> 100 µM (inactive)	> 100 µM (inactive)	> 100 µM (inactive)	> 100 µM (inactive)	> 100 µM (inactive)	> 100 µM (inactive)	> 100 µM (inactive)	> 100 µM (inactive)	–	–	–	–	–
COC(=O)C1CC(C(=O)OC)c2nc3cc([N+](=O)[O-])ccc3nc21 (stereo unspecified)	> 87.9 µM (inactive)	> 100 µM (inactive)	59.8 µM (inactive)	17.8	> 100 µM (inactive)	80.7 µM (inactive)	39 µM (inactive)	19.4 µM (inactive)	> 61.5 µM (inactive)	65.6 µM (inactive)	> 100 µM (inactive)	> 100 µM (inactive)	31.6 µM (inactive)	25.5 µM (inactive)	> 94 µM (inactive)	–	–	–	–	–
c1ccc(/N=c2/sc3ccccc3s/c2=N/c2ccccc2)cc1	1.74 µM (inactive)	2.33 µM (inactive)	1.87 µM (inactive)	1.75	2 µM (inactive)	1.62 µM (inactive)	–	5.18 µM (inactive)	1.96 µM (inactive)	1.96 µM (inactive)	2.02 µM (inactive)	2.11 µM (inactive)	1.82 µM (inactive)	3.76 µM (inactive)	2.81 µM (inactive)	2.68 µM (inactive)	–	12.8 µM (inactive)	1.65 µM (inactive)	–
CC(=O)Oc1cc2c(=O)oc3c(OC(C)=O)c(OC(C)=O)c(OC(C)=O)c4c(=O)oc(c1OC(C)=O)c2c34	38 µM (inactive)	65 µM (inactive)	> 100 µM (inactive)	> 100	25.2 µM (inactive)	> 100 µM (inactive)	36.6 µM (inactive)	58.7 µM (inactive)	> 100 µM (inactive)	34.7 µM (inactive)	41.9 µM (inactive)	94.6 µM (inactive)	6.18 µM (inactive)	20.8 µM (inactive)	36.3 µM (inactive)	–	–	–	–	–
CCOP(=O)(Nc1ccccc1P(=O)(OCC)OCC)OCC	> 100 µM (inactive)	> 100 µM (inactive)	> 100 µM (inactive)	> 100	> 100 µM (inactive)	> 100 µM (inactive)	> 100 µM (inactive)	> 100 µM (inactive)	> 100 µM (inactive)	> 100 µM (inactive)	> 100 µM (inactive)	> 100 µM (inactive)	> 100 µM (inactive)	> 100 µM (inactive)	> 100 µM (inactive)	> 100 µM (inactive)	> 100 µM (inactive)	> 100 µM (inactive)	–	> 100 µM (inactive)
CC1(C)O[C@@H](CO)[C@H]([C@@]23OC[C@H]4OC(C)(C)OC4[C@@H]2OC(C)(C)O3)O1 (stereo partly specified)	> 100 µM (inactive)	–	–	> 100	> 100 µM (inactive)	> 100 µM (inactive)	> 100 µM (inactive)	> 100 µM (inactive)	> 100 µM (inactive)	> 100 µM (inactive)	> 100 µM (inactive)	> 100 µM (inactive)	> 100 µM (inactive)	> 100 µM (inactive)	> 100 µM (inactive)	> 100 µM (inactive)	> 100 µM (inactive)	> 100 µM (inactive)	> 100 µM (inactive)	–
Cn1nc2n(c1=O)CCCN2	> 100 µM (inactive)	> 100 µM (inactive)	–	> 100	> 100 µM (inactive)	> 100 µM (inactive)	–	–	> 100 µM (inactive)	> 100 µM (inactive)	> 100 µM (inactive)	> 100 µM (inactive)	> 100 µM (inactive)	> 100 µM (inactive)	–	> 100 µM (inactive)	–	> 100 µM (inactive)	–	–
CC#C[I+]c1ccccc1	14.6 µM (inactive)	60.5 µM (inactive)	14.1 µM (inactive)	–	16.4 µM (inactive)	37.4 µM (inactive)	17.3 µM (inactive)	12.1 µM (inactive)	18.1 µM (inactive)	35.5 µM (inactive)	17.3 µM (inactive)	32.7 µM (inactive)	19.1 µM (inactive)	69.3 µM (inactive)	30.3 µM (inactive)	–	–	–	–	–
